From patent publication EP0535528A1, “Antibacterial 5-Nitro-1-methyl-imidazolyl-3-terbutyl-2-hydroxy-aryl-carbinols” (EURORESEARCH S.r.L., priority 1991, dated 1993)
Converted amounts (≈) assume the structure as drawn.

Experiments:
Swiss female albino mice = experiment: Oral and intraperitoneal acute toxicity in mice (LD50, Probits method); assay type: in vivo; details: mice
Description: 20 Swiss female albino mice are used for this test of the average weight of 20 g (±2), coming from Nossan breeding .
Cages: in Makrolon® with saw dust litter, Number of animals per cage: 5 Acclimation period: 1 week Temperature: 22°C (± 2°C) Humidity : 60%, Diet: pellets for mice produced by Nossan firm, Water ad libitum Fast before the treatment: 16 hours
Oral by gastric route and intraperitoneal.
The substances to be studied: EU11100, EU11102, EU11103, EU11104 are treated with 0.5% carboxymethylcellulose in spring water, for the oral administration, whereas the same substances are intraperitoneally administered in the form of a physiological solution .
For each of the above mentioned substances, a mother suspension is prepared having a concentration in the active ingredient of 250 mg/ml for the oral administration, and analogously a mother suspension is prepared for the intraperitoneal administration having a concentration of the desired active principle of 100 mg/ml.
The following doses are used • a) oral route: 5000 mg/kg • b) intraperitoneal route : 2000 mg/kg
If mortality is observed at the above mentioned doses, other doses are administered in order to obtain a dose-response curve.
5 animals are used for every utilized concentration.
After the administration of the above substances the animals are kept under observation for 14 days , during which the mortality and the behaviour is observed.
LD₅₀ is determined on the base of the cumulative mortality observed in the successive 14 days after the administration by using the Probits method.

Helicobapter pylori [1] = experiment: Minimal inhibiting concentration (agar dilution); assay type: cell-based
Description: Substances under examination: EU11100, EU11102, EU11103, EU11104. Comparison substance: Metronidazole Solubilization of the substances: All the substances to be studied are dissolved at room temperature in DMSO. […] 10 strains of Helicobapter pylori are used of recent clinical isolation […] The sowing of the bacteria, prepared as described in the preceding test is carried out by means a "multi-point inoculator". After 48 hours incubation under the condition described in the preceding test, the plates are examined and the Minimal Inhibiting Concentration is evaluated, namely that dose corresponding to growth absence.

Helicobapter pylori [2] = experiment: Inhibition halos of the bacterial growth (impregnated disks on agar); assay type: cell-based; details: for activity against the Helicobapter pylori strains used: 10 strains; for Inhibition halo (mm), Average: average of 10 strains
Description: Comparison substance: Metronidazole Solubilization of the substances : All the substances to be studied are dissolved at room temperature in DMSO.
Some commercially available antibiogram disks are so impregnated with the above mentioned compounds that each disk has concentration equal to 10, 1, 0.1, 0.01 µg.
10 strains of Helicobapter pylori are used of recent clinical isolation.
Columbia Blood Agar Base is used, containing 5% of defibrinated horse blood, 2 % of calf serum, 2 vials of Vitox per liter of medium and Vancomicine (10 µg/ml) Trimetoprim lactate(5 µg/ml) and Polimixin B (2.5 U/ml).
0.1 ml of a suspension of the different used strains are uniformly distributed onto Petri plates, containing 20 ml of Columbia Blood Agar base, obtained by taking a sample, by means of a platinum loop, of different colonies from a 48 hours culture, grown in anaerobiosis jars with "Gas Pack", without a catalyst and diluted into a physiological solution.
4 disks per plate, previously impregnated with the substances under examination, are then placed onto the agar layer of each plate.
After 48 hours of anaerobiosis incubation, as above described, the inhibition halos of the bacterial growth, produced by the different activity of the substances inside the agar, are evaluated.

Cn1c([N+](=O)[O-])cnc1C(O)c1cc(C(C)(C)C)cc(C(C)(C)C)c1O (stereo not shown) [EU11102, 5-nitro-1-methyl-imidazolyl-3,5-diterbutyl-2-hydroxy-phenyl-carbinol]
toxicity when intraperitoneally administered (Swiss female albino mice; intraperitoneal, 2000 mg/kg): not toxic
toxicity when orally administered (Swiss female albino mice; oral, 5000 mg/kg): not toxic
MIC50 (Helicobapter pylori [1]; 10 strains): 0.25 µg/mL (≈ 0.692 µM)
MIC90 (Helicobapter pylori [1]; 10 strains): 0.5 µg/mL (≈ 1.38 µM)
MIC range (Helicobapter pylori [1]; 10 strains): 0.25 to 0.5 µg/mL
MIC (Helicobapter pylori [1]; strain 1): 0.5 µg/mL (≈ 1.38 µM)
MIC (Helicobapter pylori [1]; strain 2): 0.25 µg/mL (≈ 0.692 µM)
MIC (Helicobapter pylori [1]; strain 3): 0.25 µg/mL (≈ 0.692 µM)
MIC (Helicobapter pylori [1]; strain 4): 0.5 µg/mL (≈ 1.38 µM)
MIC (Helicobapter pylori [1]; strain 5): 0.25 µg/mL (≈ 0.692 µM)
MIC (Helicobapter pylori [1]; strain 6): 0.5 µg/mL (≈ 1.38 µM)
MIC (Helicobapter pylori [1]; strain 7): 0.25 µg/mL (≈ 0.692 µM)
MIC (Helicobapter pylori [1]; strain 8): 0.25 µg/mL (≈ 0.692 µM)
MIC (Helicobapter pylori [1]; strain 9): 0.25 µg/mL (≈ 0.692 µM)
MIC (Helicobapter pylori [1]; strain 10): 0.25 µg/mL (≈ 0.692 µM)
activity against the Helicobapter pylori strains used (Helicobapter pylori [2]; 1 µg/disk): active against all the Helicobapter pylori used
activity against the Helicobapter pylori strains used (Helicobapter pylori [2]; disk test): active against all the Helicobapter pylori strains used
Inhibition halo (mm), Average (Helicobapter pylori [2]; 1 µg/disk): 15.1 mm
Inhibition halo (mm), Average (Helicobapter pylori [2]; 10 µg/disk): 22.9 mm
Inhibition halo (mm) at the concentration (µg/disk) (Helicobapter pylori [2]; strain 1, 0.01 µg/disk): 0 mm
Inhibition halo (mm) at the concentration (µg/disk) (Helicobapter pylori [2]; strain 1, 0.1 µg/disk): 0 mm
Inhibition halo (mm) at the concentration (µg/disk) (Helicobapter pylori [2]; strain 1, 1 µg/disk): 15 mm
Inhibition halo (mm) at the concentration (µg/disk) (Helicobapter pylori [2]; strain 1, 10 µg/disk): 23 mm
Inhibition halo (mm) at the concentration (µg/disk) (Helicobapter pylori [2]; strain 2, 0.01 µg/disk): 0 mm
Inhibition halo (mm) at the concentration (µg/disk) (Helicobapter pylori [2]; strain 2, 0.1 µg/disk): 0 mm
Inhibition halo (mm) at the concentration (µg/disk) (Helicobapter pylori [2]; strain 2, 10 µg/disk): 22 mm
Inhibition halo (mm) at the concentration (µg/disk) (Helicobapter pylori [2]; strain 3, 0.01 µg/disk): 0 mm
Inhibition halo (mm) at the concentration (µg/disk) (Helicobapter pylori [2]; strain 3, 0.1 µg/disk): 0 mm
Inhibition halo (mm) at the concentration (µg/disk) (Helicobapter pylori [2]; strain 3, 1 µg/disk): 12 mm
Inhibition halo (mm) at the concentration (µg/disk) (Helicobapter pylori [2]; strain 3, 10 µg/disk): 22 mm
Inhibition halo (mm) at the concentration (µg/disk) (Helicobapter pylori [2]; strain 4, 0.01 µg/disk): 0 mm
Inhibition halo (mm) at the concentration (µg/disk) (Helicobapter pylori [2]; strain 4, 0.1 µg/disk): 0 mm
Inhibition halo (mm) at the concentration (µg/disk) (Helicobapter pylori [2]; strain 4, 1 µg/disk): 16 mm
Inhibition halo (mm) at the concentration (µg/disk) (Helicobapter pylori [2]; strain 4, 10 µg/disk): 24 mm
Inhibition halo (mm) at the concentration (µg/disk) (Helicobapter pylori [2]; strain 5, 0.01 µg/disk): 0 mm
Inhibition halo (mm) at the concentration (µg/disk) (Helicobapter pylori [2]; strain 5, 0.1 µg/disk): 0 mm
Inhibition halo (mm) at the concentration (µg/disk) (Helicobapter pylori [2]; strain 5, 1 µg/disk): 16 mm
Inhibition halo (mm) at the concentration (µg/disk) (Helicobapter pylori [2]; strain 5, 10 µg/disk): 22 mm
Inhibition halo (mm) at the concentration (µg/disk) (Helicobapter pylori [2]; strain 6, 0.01 µg/disk): 0 mm
Inhibition halo (mm) at the concentration (µg/disk) (Helicobapter pylori [2]; strain 6, 0.1 µg/disk): 0 mm
Inhibition halo (mm) at the concentration (µg/disk) (Helicobapter pylori [2]; strain 6, 1 µg/disk): 17 mm
Inhibition halo (mm) at the concentration (µg/disk) (Helicobapter pylori [2]; strain 6, 10 µg/disk): 25 mm
Inhibition halo (mm) at the concentration (µg/disk) (Helicobapter pylori [2]; strain 7, 0.01 µg/disk): 0 mm
Inhibition halo (mm) at the concentration (µg/disk) (Helicobapter pylori [2]; strain 7, 0.1 µg/disk): 0 mm
Inhibition halo (mm) at the concentration (µg/disk) (Helicobapter pylori [2]; strain 7, 1 µg/disk): 14 mm
Inhibition halo (mm) at the concentration (µg/disk) (Helicobapter pylori [2]; strain 7, 10 µg/disk): 21 mm
Inhibition halo (mm) at the concentration (µg/disk) (Helicobapter pylori [2]; strain 8, 0.01 µg/disk): 0 mm
Inhibition halo (mm) at the concentration (µg/disk) (Helicobapter pylori [2]; strain 8, 0.1 µg/disk): 0 mm
Inhibition halo (mm) at the concentration (µg/disk) (Helicobapter pylori [2]; strain 8, 1 µg/disk): 15 mm
Inhibition halo (mm) at the concentration (µg/disk) (Helicobapter pylori [2]; strain 8, 10 µg/disk): 23 mm
Inhibition halo (mm) at the concentration (µg/disk) (Helicobapter pylori [2]; strain 9, 0.01 µg/disk): 0 mm
Inhibition halo (mm) at the concentration (µg/disk) (Helicobapter pylori [2]; strain 9, 0.1 µg/disk): 0 mm
Inhibition halo (mm) at the concentration (µg/disk) (Helicobapter pylori [2]; strain 9, 1 µg/disk): 16 mm
Inhibition halo (mm) at the concentration (µg/disk) (Helicobapter pylori [2]; strain 9, 10 µg/disk): 24 mm
Inhibition halo (mm) at the concentration (µg/disk) (Helicobapter pylori [2]; strain 10, 0.01 µg/disk): 0 mm
Inhibition halo (mm) at the concentration (µg/disk) (Helicobapter pylori [2]; strain 10, 0.1 µg/disk): 0 mm
Inhibition halo (mm) at the concentration (µg/disk) (Helicobapter pylori [2]; strain 10, 1 µg/disk): 15 mm
Inhibition halo (mm) at the concentration (µg/disk) (Helicobapter pylori [2]; strain 10, 10 µg/disk): 23 mm
